In ChEMBL document CHEMBL5356993, “Novel pyrazolo[3,4-d]pyrimidine derivatives: design, synthesis, anticancer evaluation, VEGFR-2 inhibition, and antiangiogenic activity” (RSC Med Chem, 2023):

Key:
HUVEC = experiment: Antiangiogenic activity against HUVEC cells assessed as decrease in healing rate at IC50 incubated for 72 hrs by wound healing assay relative to control; type: functional, Homo sapiens; design: scale not given: the % may be the effect or the level left
MDA-MB-468 [1] = experiment: Induction of cell cycle arrest in human MDA-MB-468 cells assessed as accumulation of cells at G2/M phase at IC50 incubated for 24 hrs by RNase/PI staining based flow cytometry (reference value: 16.13 %); type: functional
MDA-MB-468 [2] = experiment: Induction of cell cycle arrest in human MDA-MB-468 cells assessed as accumulation of cells at S phase at IC50 incubated for 24 hrs by RNase/PI staining based flow cytometry (reference value: 24.85 %); type: functional
MDA-MB-468 [3] = experiment: Induction of apoptosis in human MDA-MB-468 cells assessed as necrotic cells at IC50 incubated for 24 hrs by Annexin V/PI staining based flow cytometry (reference value: 1.59 %); type: functional
MDA-MB-468 [4] = experiment: Induction of apoptosis in human MDA-MB-468 cells assessed as total apoptotic cells at IC50 incubated for 24 hrs by Annexin V/PI staining based flow cytometry (reference value: 2.28 %); type: functional
MDA-MB-468 [5] = experiment: Induction of apoptosis in human MDA-MB-468 cells assessed as increase in caspase-3 level incubated for 2 hrs by ELISA (reference value: 2.109 ng/ml); type: functional
MDA-MB-468 [6] = experiment: Induction of cell cycle arrest in human MDA-MB-468 cells assessed as decrease in cell population at G2/M phase at IC50 incubated for 24 hrs by RNase/PI staining based flow cytometry relative to control; type: functional; design: scale not given: the % may be the effect or the level left
MDA-MB-468 [7] = experiment: Induction of cell cycle arrest in human MDA-MB-468 cells assessed as fold increase in cell population at S phase at IC50 incubated for 24 hrs by RNase/PI staining based flow cytometry relative to control; type: functional
MDA-MB-468 [8] = experiment: Induction of apoptosis in human MDA-MB-468 cells assessed as fold increase in caspase-3 level incubated for 2 hrs by ELISA relative to control; type: functional
MDA-MB-468 [9] = experiment: Induction of apoptosis in human MDA-MB-468 cells assessed as early apoptotic cells at IC50 incubated for 24 hrs by Annexin V/PI staining based flow cytometry (reference value: 0.52 %); type: functional
MDA-MB-468 [10] = experiment: Induction of apoptosis in human MDA-MB-468 cells assessed as fold increase in total apoptotic cells at IC50 incubated for 24 hrs by Annexin V/PI staining based flow cytometry relative to control; type: functional
MDA-MB-468 [11] = experiment: Induction of apoptosis in human MDA-MB-468 cells assessed as late apoptotic cells at IC50 incubated for 24 hrs by Annexin V/PI staining based flow cytometry (reference value: 0.17 %); type: functional

SMILES: Cc1nc2c(cnn2-c2ccccc2)c(=O)n1-c1ccc(NC(=O)c2ccc(F)cc2)cc1
- Activity (HUVEC): 23%
- Activity (MDA-MB-468 [1]): 9.12%
- Activity (MDA-MB-468 [2]): 38.02%
- Activity (MDA-MB-468 [3]): 4.94%
- Activity (MDA-MB-468 [4]): 43.28%
- Activity (MDA-MB-468 [5]): 15.44 ng/mL
- Activity (MDA-MB-468 [6]): 43.46%
- fold change (FC) (MDA-MB-468 [7]): 1.53
- fold change (FC) (MDA-MB-468 [8]): 7.32
- Activity (MDA-MB-468 [9]): 15.85%
- fold change (FC) (MDA-MB-468 [10]): 18.98
- Activity (MDA-MB-468 [11]): 22.49%
